Source: patent US11066681B2, “Production of itaconic acid” (LESAFFRE ET COMPAGNIE, priority 2016, dated 2021)
“Also recorded” adds a separate entry of the source.

Experiments:
[1] = system: Itaconyl CoA hydratase ATEG_03709; settings: 40 g/l IA addition to culture medium; cited from earlier work
[2] = system: Trans-aconitate 2-methyltransferase ATEG_04223; settings: 40 g/l IA addition to culture medium; cited from earlier work
[3] = system: A. niger AB1.13 CAD 4.1 (CBS 141653) strain; experiment: Itaconic acid toxicity: shakeflask growth in M12+Cu with added IA, biomass dry weight; assay type: cell-based, Aspergillus niger
Experimental: FIG. 4: Growth of AB1.13 CAD 4.1 (CBS 141653) strain in M12+Cu supplemented with several concentrations of itaconic acid. Medium devoid of C-source is used as negative control. An extracellular concentration of 10 g/l IA in the production medium results in an 75% decrease in biomass development.
Shakeflasks (500 mL) were prepared with 100 mL M12+Cu supplemented with the following IA concentrations: 0, 10, 20, 40, 75 g/l and pH was adjusted to 2.3 by addition of KOH/H2SO4. The flasks were inoculated with 1 mL of overnight grown pre-culture. After 7 days the mycelium was harvested and the biomass was determined by measuring the dry weight. The effect of IA on the growth of A. niger was tested using the AB1.13 CAD 4.1 (CBS 141653) strain. As shown in FIG. 4 the growth of A. niger is already hampered at concentrations of 10 g/l IA in the extracellular medium.

[4] = system: Citramalyl-CoA lyase ATEG_03186; settings: 40 g/l IA addition to culture medium; cited from earlier work
[5] = system: Trans-aconitate 3-methyltransferase (tmt-1) ATEG_06208; settings: 40 g/l IA addition to culture medium; cited from earlier work
[6] = system: Itaconyl CoA transferase ATEG_06299; settings: 40 g/l IA addition to culture medium; cited from earlier work
[7] = system: trans-aconitate 2-methyltransferase (An16g06510); experiment: Gene expression analysis (RNA-Seq) in A. niger IA producing strains; assay type: cell-based, Aspergillus niger; settings: IA producing A. niger strains in controlled fermentation
Experimental: Similarly, genome wide gene expression analysis of Aspergillus niger strains expressing a functional itaconic acid pathway grown in fermenters was carried out to identify genes co-regulated by the expression of the itaconic acid gene cluster. The following strains were investigated: AB1.13 WT, AB1.13 CAD 4.1 (CBS141653), AB1.13 #49B (CBS141657), CitB #99 (CBS141659), and CitB #113.
Controlled batch-cultivations were performed on 5 L scale benchtop New Brunswick Scientific fermenters (BioFlo 3000) at 33° C. Starting pH was 3.5 after inoculation and medium was allowed to naturally acidify till pH 2.3 and then kept at pH 2.3 by addition of 4M KOH. […]
BaseClear in Leiden, NL performed digital gene expression profiling experiments based on RNA-Seq with an Illumina HiSeq 2000 System. Approximately 8-32 M unfiltered paired-end (PE) reads (99 bp/read on ˜320 bp cDNA inserts) were obtained. […] The reads were then further filtered, such that all quality phred scores after filtering are at least 22, with a read-length of at least 40 bases. […] After filtering the #PE-reads/samples were between 7.6M and 19.8M for all the samples respectively.
Reads were aligned to the 20 contigs in a FastA file of the Aspergillus niger reference genome (from www.ebi.ac.uk). […] The reads were aligned to the reference genome using software based on a Burrows-Wheeler Transform (BWT) algorithm. […]

In the case of C=C(CC(=O)O)C(=O)O [IA, itaconic acid], the Induced [1] is listed as “induced”, the “induced expression level (RKPM)” value [1] is listed as 320 RKPM and the x-fold [1] is listed as 2.3 x-fold. The Induced [2] was “not induced”, the “induced expression level (RKPM)” value [2] was “<(25) RKPM” and the “growth of A. niger” value ([3]; 10 g/l IA in the extracellular medium, M12+Cu, 7 days) was “hampered”. For the same compound, the “growth at higher IA concentrations” value ([3]; 20 g/l IA and higher (20, 40 and 75 g/l), M12+Cu, 7 days, 33° C.) was “detrimental effects of IA on growth become more evident; also recorded: further deteriorated growth”, the “decrease in biomass development” value ([3]; extracellular 10 g/l IA in production medium M12+Cu, pH 2.3, 7 days, 33° C.) was 75% and the Induced [4] was “induced”. The “induced expression level (RKPM)” value [4] was 150 RKPM, the x-fold [4] was 5.4 x-fold and the Induced [5] was “not induced”. For the same compound, the “induced expression level (RKPM)” value [5] was “<(4) RKPM”, the Induced [6] was “induced” and the “induced expression level (RKPM)” value [6] was 130 RKPM. The x-fold [6] was 8.2 x-fold and the “gene expression, effect of itaconic acid” value [7] was “induced”.
